Experiments:
Assay in all cases: In vitro antibacterial activity (MIC, agar double dilution)
Format in all cases: cell-based
[1] = test system: Bacillus pneumoniae 46101
Excerpt: (§1) tested samples YR-1, YR-2 were the ones prepared in example 1 and example 5 respectively, control samples were cefetamet sodium (CTM), cefuroxime sodium (CRX), cefetamet sodium+sulbactam sodium (CTM+SBT) (molar ratio 1:1), cefuroxime+sulbactam sodium (CRX+SBT) (molar ratio 1:1). All control samples (have been sold on the market) were supplied by Zhejiang Yongning pharmaceutical factory.
(§2) Staphylococcus aureus 26003, Diplococcus lanceolatus 31002, E. coli 44102, Shigella sonnet 51081, Shigella bogdii 51313, Shigella flexneri 51573, Proteus mirabilis 49005, Bacillus proteus 49085, Proteus morganii 49086, Pseudomonas aeruginosa 10124, Bacillus pneumoniae 46101, Salmonella enteritidis 50041, Salmonella typhi 50097, Citrobacter 48017, Candida ciferii 41002 were supplied by Shanghai Hygienic and Antiepidemic Station.
(§3) Mueller-Hinton Agar (M.H) culture medium, batch number 20040528 (Shanghai Reagent Supply Research Center, China Diarrhea Disease Control).
(§4) Adopted agar double dilution, inoculated using multipoint inoculator, inoculated 10^5CFU/ML each point, cultured for 24 hours at 37° C., observed and recorded the results, set the least concentration of the antibacterial drug that can inhibit bacteria growth as the minimum inhibitory concentration (MIC).

[2] = test system: Diplococcus lanceolatus 31002
Excerpt: as §1, §2, §3, §4

Shigella flexneri 51573 = test system: Shigella flexneri 51573
Excerpt: as §1, §2, §3, §4

[3] = test system: Pseudomonas aeruginosa 10124
Excerpt: as §1, §2, §3, §4

[4] = test system: Salmonella enteritidis 50041
Excerpt: as §1, §2, §3, §4

Shigella sonnet 51081 = test system: Shigella sonnet 51081
Excerpt: as §1, §2, §3, §4

Molecule | MIC of the drug to bacteria ([1]; Bacillus pneumoniae 46101, 10^5CFU/ML each point, 24 hours at 37° C.) | MIC of the drug to bacteria ([2]; Diplococcus lanceolatus 31002, 10^5CFU/ML each point, 24 hours at 37° C.) | MIC of the drug to bacteria (Shigella flexneri 51573; Shigella flexneri 51573, 10^5CFU/ML each point, 24 hours at 37° C.) | MIC of the drug to bacteria ([3]; Pseudomonas aeruginosa 10124, 10^5CFU/ML each point, 24 hours at 37° C.) | MIC of the drug to bacteria ([4]; Salmonella enteritidis 50041, 10^5CFU/ML each point, 24 hours at 37° C.) | MIC of the drug to bacteria (Shigella sonnet 51081; Shigella sonnet 51081, 10^5CFU/ML each point, 24 hours at 37° C.) | MIC ([1]; Klebsiella pneumoniae, 46101, 24 h, read-out: MIC of the drug to bacteria) | MIC ([2]; 24 h, read-out: MIC of the drug to bacteria) | MIC (Shigella flexneri 51573; Shigella flexneri, 51573, 24 h, read-out: MIC of the drug to bacteria) | MIC ([3]; Pseudomonas aeruginosa, 10124, 24 h, read-out: MIC of the drug to bacteria) | MIC ([4]; Salmonella enterica, ENTERITIDIS, 24 h, read-out: MIC of the drug to bacteria) | MIC (Shigella sonnet 51081; Shigella, 51081, 24 h, read-out: MIC of the drug to bacteria)
5-thia-1-aza-bicyclo [4,2,0] octane-2-ene-2-carboxylic acid, 7-[[(2-amino-4-thiazolyl) (methoxy imine) acetyl]amino]-3-methyl-8-oxo-, [[3,3-dimethyl-4,4-dioxy-7-oxo-4-thia-1-aza-bicyclo [3,2,0] heptane-2-group]carbonyloxy]oxy]methyl ester [YR-1] | 0.78 µg/mL | 100 µg/mL | 0.39 µg/mL | 100 µg/mL | 1.56 µg/mL | 0.39 µg/mL | – | – | – | – | – | –
CON=C(C(=O)NC1C(=O)N2C(C(=O)OCOC(=O)C3N4C(=O)CC4S(=O)(=O)C3(C)C)=C(COC(N)=O)CSC12)c1ccco1 (stereo not drawn) [YR-2, 5-thia-1-aza-bicyclo [4,2,0] octane-2-ene-2-carboxylic acid, 7-[[(2-furane (methoxy imine)acetyl)amino]-3-[[(aminocarbonyloxy)oxy]methyl]-8-oxo-, [[3,3-dimethyl-4,4-dioxy-7-oxo-4-thia-1-aza-bicyclo[3,2,0]heptane-2-group]carbonyloxy]oxy]methyl ester] | – | – | – | – | – | – | 12.5 µg/mL | 25 µg/mL | 3.13 µg/mL | 100 µg/mL | 12.5 µg/mL | 1.56 µg/mL

Source: US7750148B2, “Intermediate compound for the production of β-lactamase-resistant cephalosporin ester compounds and salts thereof” (Zhejiang Yongning Pharmaceutical Factory, priority 2003, dated 2010)
